Source: PMC2868066 (Biochemistry, 2010)
≈ marks a conversion by molar mass, not a printed value. Peptide text beside a SMILES is read from it.

Key:
S. aureus ATCC 29213 = format: cell-based; conditions: ATCC 29213, 18 h
E. coli K12 = format: cell-based; conditions: K12, 18 h
S. aureus / E. coli = conditions: cited from earlier work

Compound	MIC (S. aureus ATCC 29213)	MIC (E. coli K12)	MIC S. aureus/MIC E. coli (S. aureus / E. coli)
CC[C@H](C)[C@H](NC(=O)CN)C(=O)NCC(=O)N[C@@H](CCCCN)C(=O)N[C@@H](Cc1ccccc1)C(=O)N[C@@H](CC(C)C)C(=O)N[C@@H](CCCCN)C(=O)N[C@@H](CCCCN)C(=O)N[C@@H](C)C(=O)N[C@@H](CCCCN)C(=O)N[C@@H](CCCCN)C(=O)N[C@@H](Cc1ccccc1)C(=O)NCC(=O)N[C@@H](CCCCN)C(=O)N[C@@H](C)C(=O)N[C@@H](Cc1ccccc1)C(=O)N[C@H](C(=O)N[C@@H](CCCCN)C(=O)N[C@H](C(=O)N[C@@H](CC(C)C)C(=O)N[C@@H](CCCCN)C(=O)N[C@@H](CCCCN)C(N)=O)[C@@H](C)CC)C(C)C [MSI-78] (H-GIGKFLKKAKKFGKAFVKILKK-NH2)	12.5 µg/mL (≈ 5.05 µM)	–	–
CC[C@H](C)[C@H](NC(=O)[C@H](CCCCN)NC(=O)CNC(=O)[C@H](C)NC(=O)[C@@H](NC(=O)[C@H](CCCCN)NC(=O)[C@H](C)NC(=O)[C@@H](NC(=O)[C@H](CCCCN)NC(=O)CNC(=O)[C@H](C)NC(=O)[C@@H](NC(=O)[C@H](CCCCN)NC(=O)[C@H](C)NC(=O)[C@@H](NC(=O)[C@H](CCCCN)NC(=O)CNC(=O)[C@H](C)NC(=O)[C@@H](NC(=O)[C@@H](N)CCCCN)[C@@H](C)CC)[C@@H](C)CC)[C@@H](C)CC)[C@@H](C)CC)[C@@H](C)CC)C(=O)N[C@@H](C)C(N)=O [MSI-103] (H-KIAGKIAKIAGKIAKIAGKIA-NH2)	25 µg/mL (≈ 12.1 µM)	1.6 µg/mL (≈ 0.776 µM)	–
Cateslytin	–	–	>3
